Values after ≈ are worked out from the molar mass of the structure shown. Where two headings read alike, the source gives them in different places. Non-standard residues stand in square brackets, D forms with d. Residues, ends and D or L forms follow the SMILES beside them. *: point of attachment. Orn(α-tetramethylguanidino) = CN(C)C(=N[C@@H](CCCN)C(=O)*)N(C)C; Orn = NCCC[C@H](N)C(=O)O
Columns and labels:
[1] = system: C. neoformans strains 1841, H99, and KN99α; experiment: Broth microdilution assay (MIC); assay type: cell-based, Cryptococcus neoformans
[2] = system: C. neoformans KN99α (serotype A, mating type MATα)
[3] = system: C. neoformans 1841 (serotype D); conditions: for MIC (μmol/L) 1841 24 h: 1841 (serotype D, 24 h, pH 7.5); for MIC (μmol/L) 1841 48 h: 1841 (serotype D, 48 h, pH 7.5)
[4] = system: C. neoformans H99 (serotype A); conditions: for MIC (μmol/L) H99 24 h: H99 (serotype A, 24 h); for MIC (μmol/L) H99 48 h: H99 (serotype A, 48 h)
[5] = strains 1841, H99, and KN99α, 24 h
[6] = KN99α (serotype A, mating type MATα, 24 h)
[7] = KN99α (serotype A, mating type MATα, 48 h)

Row | Compound | MIC [1] | MIC [1, 5] [µM] | MIC (mg/L) KN99α 24 h [2, 6] [mg/L] | MIC (μmol/L) KN99α 24 h [2, 6] [µmol/L] | MIC (mg/L) KN99α 48 h [2, 7] [mg/L] | MIC (μmol/L) KN99α 48 h [2, 7] [µmol/L] | MIC (μmol/L) 1841 24 h [3] [µmol/L] | MIC (μmol/L) 1841 48 h [3] [µmol/L] | MIC (mg/L) 1841 24 h ([3]; broth microdilution, 50% SAB in phosphate buffer, 30°C, read after 24 h, n = 6) [mg/L] | MIC (mg/L) 1841 48 h ([3]; broth microdilution, 50% SAB in phosphate buffer, 30°C, read after 48 h, n = 6) [mg/L] | MIC (μmol/L) H99 24 h [4] [µmol/L] | MIC (μmol/L) H99 48 h [4] [µmol/L]
1 | CC[C@H](C)[C@H](NC(=O)[C@H](Cc1ccc(O)cc1)NC(=O)[C@@H](NC(=O)[C@@H]1CCCN1C(=O)[C@H](CCCNC(=N)N)NC(=O)[C@H](CC(N)=O)NC(=O)[C@H](CC(N)=O)NC(=O)[C@H](CCCN)N=C(N(C)C)N(C)C)C(C)C)C(=O)N1CCC[C@H]1C(=O)N[C@@H](CCCNC(=N)N)C(=O)N1CCC[C@H]1C(=O)N[C@@H](CCCNC(=N)N)C(=O)N1CCC[C@H]1C(=O)N1CCC[C@H]1C(=O)N[C@@H](Cc1c[nH]cn1)C(=O)N1CCC[C@H]1C(=O)N[C@@H](CCCNC(=N)N)C(=O)N[C@@H](CC(C)C)C(=O)O [Api137] ({Orn(α-tetramethylguanidino)}-NNRPVYIPRPRPPHPRL-OH; N-terminus and C-terminus assumed) | 32 to 64 µg/mL | 14 to 28 | 32 to 64 | 14 to 28 | 64 to 128 | 28 to 56 | 14 (≈ 32.1 µg/mL) | 28 (≈ 64.2 µg/mL) | 32 (≈ 14 µM) | 64 (≈ 27.9 µM) | 14 (≈ 32.1 µg/mL) | 28 (≈ 64.2 µg/mL)
2 | CC[C@H](C)[C@H](NC(=O)[C@H](CCCN)NC(=O)[C@@H](NC(=O)[C@@H](N)CCCN)[C@@H](C)CC)C(=O)N[C@@H](CCCN)C(=O)N[C@@H](CCCNC(=N)N)C(=O)N1CCC[C@H]1C(=O)N[C@H](C(=O)N[C@@H](Cc1ccc(O)cc1)C(=O)N[C@@H](CCCN)C(=O)N1CCC[C@H]1C(=O)N[C@@H](CCCNC(=N)N)C(=O)N1CCC[C@H]1C(=O)N[C@@H](CCCNC(=N)N)C(=O)N1CCC[C@H]1C(=O)N1CCC[C@H]1C(=O)N[C@@H](Cc1c[nH]cn1)C(=O)N1CCC[C@H]1C(=O)N[C@@H](CCCNC(=N)N)C(=O)N[C@@H](CCCNC(=N)N)C(=O)O)C(C)C [Api822] (H-[Orn]I[Orn]I[Orn]RPVY[Orn]PRPRPPHPRR-OH) | – | 1.6 to 6.7 | – | 3.2 (≈ 7.88 µg/mL) | – | 3.2 (≈ 7.88 µg/mL) | 3.2 (≈ 7.88 µg/mL) | 3.2 (≈ 7.88 µg/mL) | – | – | 3.2 (≈ 7.88 µg/mL) | 3.2 (≈ 7.88 µg/mL)
3 | CC[C@H](C)[C@H](NC(=O)[C@H](Cc1ccc(O)cc1)NC(=O)[C@@H](NC(=O)[C@@H]1CCCN1C(=O)[C@H](CCCNC(=N)N)NC(=O)[C@H](CC(N)=O)NC(=O)[C@H](CC(N)=O)NC(=O)CN)C(C)C)C(=O)N1CCC[C@H]1C(=O)N[C@@H](CCC(N)=O)C(=O)N1CCC[C@H]1C(=O)N[C@@H](CCCNC(=N)N)C(=O)N1CCC[C@H]1C(=O)N1CCC[C@H]1C(=O)N[C@@H](Cc1c[nH]cn1)C(=O)N1CCC[C@H]1C(=O)N[C@@H](CCCNC(=N)N)C(=O)N[C@@H](CC(C)C)C(=O)O [Apidaecin 1b, reference compound] (H-GNNRPVYIPQPRPPHPRL-OH) | – | > 61 | – | > 61 | – | > 61 | > 61 | > 61 | – | – | > 61 | > 61
4 | CC[C@H](C)[C@H](NC(=O)[C@H](CCCCN)NC(=O)[C@H](CCC(=O)O)NC(=O)CNC(=O)CNC(=O)[C@H](CCCCN)NC(=O)[C@H](CCCNC(=N)N)NC(=O)[C@H](CC(C)C)NC(=O)[C@H](CC(C)C)NC(=O)CN)C(=O)NCC(=O)N[C@@H](CCC(=O)O)C(=O)N[C@@H](CCCCN)C(=O)N[C@@H](CC(C)C)C(=O)N[C@@H](CCCCN)C(=O)N[C@@H](CCCCN)C(=O)N[C@H](C(=O)NCC(=O)N[C@@H](CCC(N)=O)C(=O)N[C@@H](CCCCN)C(=O)N[C@H](C(=O)N[C@@H](CCCCN)C(=O)N[C@@H](CC(N)=O)C(=O)N[C@@H](Cc1ccccc1)C(=O)N[C@@H](Cc1ccccc1)C(=O)N[C@@H](CCC(N)=O)C(=O)N[C@@H](CCCCN)C(=O)N[C@@H](CC(C)C)C(=O)N[C@H](C(=O)N1CCC[C@H]1C(=O)N[C@@H](CCC(N)=O)C(=O)N1CCC[C@H]1C(=O)N[C@@H](CCC(=O)O)C(=O)N[C@@H](CCC(N)=O)C(=O)O)C(C)C)[C@@H](C)CC)[C@@H](C)CC [CRAMP, reference compound] (H-GLLRKGGEKIGEKLKKIGQKIKNFFQKLVPQPEQ-OH) | 2.1 µM | – | – | 2.1 (≈ 8.15 µg/mL) | – | 2.1 (≈ 8.15 µg/mL) | 2.1 (≈ 8.15 µg/mL) | 2.1 (≈ 8.15 µg/mL) | – | – | 2.1 (≈ 8.15 µg/mL) | 2.1 (≈ 8.15 µg/mL)
5 | CC[C@H](C)[C@H](NC(=O)[C@@H]1CCCN1C(=O)[C@H](CCCNC(=N)N)NC(=O)[C@@H]1CCCN1C(=O)[C@H](Cc1c[nH]cn1)NC(=O)[C@H](CO)NC(=O)[C@@H](NC(=O)[C@@H]1CCCN1C(=O)[C@H](CCCNC(=N)N)NC(=O)[C@@H]1CCCN1C(=O)[C@H](CO)NC(=O)[C@H](Cc1ccc(O)cc1)NC(=O)[C@@H]1CCCN1C(=O)[C@H](CCCNC(=N)N)NC(=O)[C@@H]1CCCN1C(=O)[C@H](CCCCN)NC(=O)CN)[C@@H](C)O)C(=O)N[C@@H](CCCNC(=N)N)C(=O)N[C@H](C(=O)O)C(C)C [Drosocin, reference compound] (H-GKPRPYSPRPTSHPRPIRV-OH) | – | > 58 | – | >58 | – | >58 | 29 (≈ 63.8 µg/mL) | 58 (≈ 128 µg/mL) | – | – | 58 (≈ 128 µg/mL) | >58

Reference: PMC10800876, “Evaluation of proline-rich antimicrobial peptides as potential lead structures for novel antimycotics against Cryptococcus neoformans” (Frontiers in Microbiology, 2024)
